28 compounds from patent publication US7268152B2, “Glucocorticoid mimetics, methods of making them, pharmaceutical compositions, and uses thereof” (Boehringer Ingelheim Pharmaceuticals, Inc., priority 2002, dated 2007) can be followed below.

Structures are written as SMILES. A value given as a limit tells only on which side of the number the result lay.

This experiment concerns the target T1, human glucocorticoid receptor (GR) complex (Homo sapiens, UniProt P04150).
T1 construct: made in house; host or cells: insect expression system (baculovirus lysate)
T1 sequence (P04150 1-777): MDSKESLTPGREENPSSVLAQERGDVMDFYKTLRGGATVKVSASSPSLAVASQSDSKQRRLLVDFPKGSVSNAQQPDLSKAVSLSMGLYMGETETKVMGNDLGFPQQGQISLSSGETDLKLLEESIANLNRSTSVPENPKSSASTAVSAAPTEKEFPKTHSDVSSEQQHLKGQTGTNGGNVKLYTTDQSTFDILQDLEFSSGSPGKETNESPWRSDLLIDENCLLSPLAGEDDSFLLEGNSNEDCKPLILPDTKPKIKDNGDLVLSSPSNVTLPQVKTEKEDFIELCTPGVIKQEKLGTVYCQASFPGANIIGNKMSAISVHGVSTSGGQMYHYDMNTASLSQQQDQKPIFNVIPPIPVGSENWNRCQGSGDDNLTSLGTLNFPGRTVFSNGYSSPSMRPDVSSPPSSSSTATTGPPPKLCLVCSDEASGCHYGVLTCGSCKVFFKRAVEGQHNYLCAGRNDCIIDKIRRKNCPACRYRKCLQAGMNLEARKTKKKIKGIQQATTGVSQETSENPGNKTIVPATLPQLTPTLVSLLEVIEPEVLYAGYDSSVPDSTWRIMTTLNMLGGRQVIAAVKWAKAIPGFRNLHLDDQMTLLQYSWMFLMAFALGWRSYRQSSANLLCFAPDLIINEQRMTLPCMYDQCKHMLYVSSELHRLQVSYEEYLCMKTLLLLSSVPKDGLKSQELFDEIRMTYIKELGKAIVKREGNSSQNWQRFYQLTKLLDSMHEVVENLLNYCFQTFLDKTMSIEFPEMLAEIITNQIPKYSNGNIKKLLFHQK
In words: Glucocorticoid receptor competitive binding assay (fluorescence polarization). Conditions: competition with TAMRA-labeled dexamethasone. As for the experimental part: Compounds of the invention were evaluated for binding to the steroid receptor by a fluorescence polarization competitive binding assay. Detailed descriptions for preparation of recombinant glucocorticoid receptor (GR) complex used in the assay is described in U.S. provisional application No. 60/291,877, filed May 18, 2001, and incorporated herein by reference in its entirety. Preparation of the tetramethyl rhodamine (TAMRA)-labeled dexamethasone probe was accomplished using a standard literature procedure (M. Pons et al., J. Steroid Biochem., 1985, 22, pp. 267-273).
A. Glucocorticoid Receptor Competitive Binding Assay
Step 1. Characterization of the Fluorescent Probe
The wavelengths for maximum excitation and emission of the fluorescent probe should first be measured. An example of such a probe is rhodamine (TAMRA)-labeled dexamethasone.
The affinity of the probe for the steroid receptor was then determined in a titration experiment. The fluorescence polarization value of the probe in assay buffer was measured on an SLM-8100 fluorometer using the excitation and emission maximum values described above. Aliquots of expression vector lysate were added and fluorescence polarization was measured after each addition until no further change in polarization value was observed. Non-linear least squares regression analysis was used to calculate the dissociation constant of the probe from the polarization values obtained for lysate binding to the probe.
Step 2. Screeningfor Inhibitors of Probe Binding
This assay uses fluorescence polarization (FP) to quantitate the ability of test compounds to compete with tetramethyl rhodamine (TAMRA)-labeled dexamethasone for binding to a human glucocorticoid receptor (GR) complex prepared from an insect expression system. The assay buffer was: 10 mM TES, 50 mM KCl, 20 mM Na2MoO4.2H2O, 1.5 mM EDTA, 0.04% w/v CHAPS, 10% v/v glycerol, 1 mM dithiothreitol, pH 7.4. Test compounds were dissolved to 1 mM in neat DMSO and then further diluted to 10×assay concentration in assay buffer supplemented with 10% v/v DMSO. Test compounds were serially diluted at 10×assay concentrations in 10% DMSO-containing buffer in 96-well polypropylene plates. Binding reaction mixtures were prepared in 96-well black Dynex microtiter plates by sequential addition of the following assay components to each well: […] of 10×test compound solution, 85 μL of GR-containing baculovirus lysate diluted 1:170 in assay buffer, and 50 μL of 15 nM TAMRA-labeled dexamethasone. Positive controls were reaction mixtures containing no test compound; negative controls (blanks) were reaction mixtures containing 0.7 μM to 2 μM dexamethasone. The binding reactions were incubated for 1 hour at room temperature and then read for fluorescence polarization in the LJL Analyst set to 550 nm excitation and 580 nm emission, with the Rhodamine 561 dichroic mirror installed. IC50 values were determined by iterative non-linear curve fitting of the FP signal data to a 4-parameter logistic equation.
For orientation: In fluorescence polarisation assays a small probe gives low polarisation when free and higher when bound to something large.

As to `COc1ccc(F)cc1C(C)(C)CC(O)(Cc1ccccc1Cl)C(F)(F)F` (stereo not shown) [2-(2-Chlorobenzyl)-1,1,1-trifluoro-4-(5-fluoro-2-methoxyphenyl)-4-methylpentan-2-ol], the IC50 is no more than 100 nM.

On to `COc1ccc(F)cc1C(C)(C)CC(O)(Cc1cc(C(F)(F)F)ccc1F)C(F)(F)F` (stereo not shown) [1,1,1-Trifluoro-4-(5-fluoro-2-methoxyphenyl)-2-(2-fluoro-5-trifluoromethylbenzyl)-4-methylpentan-2-ol], for which the IC50 was no more than 100 nM.

In turn, `COc1ccc(F)cc1C(C)(C)CC(O)(Cc1cc(Cl)ccc1F)C(F)(F)F` (stereo not shown) [2-(5-Chloro-2-fluorobenzyl)-1,1,1-trifluoro-4-(5-fluoro-2-methoxyphenyl)-4-methylpentan-2-ol] showed an IC50 of no more than 100 nM.

As for `CC(C)(CC(O)(Cc1ccc(C#N)cc1)C(F)(F)F)c1cc(F)ccc1O` (stereo not shown) [4-[4-(5-Fluoro-2-hydroxyphenyl)-2-hydroxy-4-methyl-2-trifluoromethylpentyl]benzonitrile], the IC50 was no more than 100 nM.

As for `CC(C)(CC(O)(Cc1cc(Cl)cc(Cl)c1)C(F)(F)F)c1cc(F)ccc1O` (stereo not shown) [2-[3-(3,5-Dichlorobenzyl)-4,4,4-trifluoro-3-hydroxy-1,1-dimethylbutyl]4-fluorophenol], the half-inhibitory concentration (IC50) was no more than 100 nM.

`COc1ccc(F)cc1C(C)(C)CC(O)(Cc1cc(Cl)cc(Cl)c1)C(F)(F)F` (stereo not shown) [2-(3,5-Dichlorobenzyl)-1,1,1-trifluoro-4-(5-fluoro-2-methoxyphenyl)-4-methylpentan-2-ol] came in with an IC50 of no more than 100 nM.

The compound `COc1ccc(F)cc1C(C)(C)CC(O)(Cc1ccc(C=O)cc1)C(F)(F)F` (stereo not shown) displayed an IC50 of no more than 100 nM.

Regarding `COc1ccc(F)cc1C(C)(C)CC(O)(Cc1cc(Cl)ccc1Cl)C(F)(F)F` (stereo not shown) [2-(2,5-Dichlorobenzyl)-1,1,1-trifluoro-4-(5-fluoro-2-methoxyphenyl)-4-methylpentan-2-ol], the 50% inhibitory concentration (IC50) is no more than 100 nM.

On to `CC(C)(CC(O)(Cc1ccc(O)cc1)C(F)(F)F)c1cc(F)ccc1O` (stereo not shown) [4-Fluoro-2-[4,4,4-trifluoro-3-hydroxy-3-(4-hydroxybenzyl)-1,1-dimethylbutyl]phenol], for which the IC50 was no more than 100 nM.

On to `COc1ccc(F)cc1C(C)(C)CC(O)(Cc1ccc(-c2ccccc2)cc1)C(F)(F)F` (stereo not shown) [2-Biphenyl-4-ylmethyl-1,1,1-trifluoro-4-(5-fluoro-2-methoxyphenyl)-4-methylpentan-2-ol], for which the IC50 was no more than 100 nM.

In the case of `COc1ccc(F)cc1C(C)(C)CC(O)(Cc1cccc(C#N)c1)C(F)(F)F` (stereo not shown) [3-[4-(5-Fluoro-2-methoxyphenyl)-2-hydroxy-4-methyl-2-trifluoromethylpentyl]benzonitrile], the IC50 is no more than 100 nM.

In the case of `COc1ccc(F)cc1C(C)(C)CC(O)(Cc1cc(C(F)(F)F)cc(C(F)(F)F)c1)C(F)(F)F` (stereo not shown) [2-(3,5-Bis-trifluoromethylbenzyl)-1,1,1-trifluoro-4-(5-fluoro-2-methoxyphenyl)-4-methylpentan-2-ol], the IC50 was no more than 100 nM.

Take `CC(C)(CC(O)(Cc1cc(C(F)(F)F)cc(Cl)c1F)C(F)(F)F)c1cc(C#N)cc2c1OCC2` (stereo not shown) [7-[3-(3-Chloro-2-fluoro-5-trifluoromethylbenzyl)-4,4,4-trifluoro-3-hydroxy-1,1-dimethylbutyl]-2,3-dihydrobenzofuran-5-carbonitrile]: the half-maximal inhibitory concentration (IC50) was no more than 100 nM.

The compound `COc1ccc(F)cc1C(C)(C)CC(O)(Cc1cccc(Cl)c1F)C(F)(F)F` (stereo not shown) [2-(3-Chloro-2-fluorobenzyl)-1,1,1-trifluoro-4-(5-fluoro-2-methoxyphenyl)-4-methylpentan-2ol] yielded an IC50 of no more than 100 nM.

On to `COc1ccc(F)cc1C(C)(C)CC(O)(Cc1ccc(C)c(C)c1)C(F)(F)F` (stereo not shown) [2-(3,4-Dimethylbenzyl)-1,1,1-trifluoro-4-(5-fluoro-2-methoxyphenyl)-4-methylpentan-2-ol], for which the IC50 was no more than 100 nM.

On to `COc1ccc(F)cc1C(C)(C)CC(O)(C(O)c1cc(C)cc(C)c1)C(F)(F)F` (stereo not shown) [1-(3,5-Dimethylphenyl)-4-(5-fluoro-2-methoxyphenyl)-4-methyl-2-trifluoromethylpentane-1,2-diol], for which the IC50 is no more than 100 nM.

On to `COc1ccc(F)cc1C(C)(C)CC(O)(C(=O)Cc1cc(C)cc(C)c1)C(F)(F)F` (stereo not shown) [1-(3,5-Dimethylphenyl)-5-(5-fluoro-2-methoxyphenyl)-3-hydroxy-5-methyl-3-trifluoromethylhexan-2-one], for which the IC50 is no more than 100 nM.

In turn, `COc1ccc(F)cc1C(C)(C)CC(O)(Cc1c(C)ccc2ccccc12)C(F)(F)F` (stereo not shown) [1,1,1-Trifluoro-4-(5-fluoro-2-methoxyphenyl)-4-methyl-2-(2-methylnaphthalen-1-ylmethyl)pentan-2-ol] displayed an IC50 of no more than 100 nM.

`CC(C)(CC(O)(Cc1cc(F)cc(C(F)(F)F)c1)C(F)(F)F)c1cc(F)ccc1O` (stereo not shown) [4-Fluoro-2-[4,4,4-trifluoro-3-(3-fluoro-5-trifluoromethylbenzyl)-3-hydroxy-1,1-dimethylbutyl]phenol]: the half-maximal inhibitory concentration (IC50) is no more than 100 nM.

In the case of `CC(C)(CC(O)(Cc1ccc(-c2ccccc2)cc1)C(F)(F)F)c1cc(F)ccc1O` (stereo not shown) [2-(3-Biphenyl-4-ylmethyl-4,4,4-trifluoro-3-hydroxy-1,1-dimethylbutyl)-4-fluorophenol], the IC50 is no more than 100 nM.

For `COc1ccc(F)cc1C(C)(C)CC(O)(Cc1cc(F)cc(F)c1F)C(F)(F)F` (stereo not shown) [1,1,1-Trifluoro-4-(5-fluoro-2-methoxyphenyl)-4-methyl-2-(2,3,5-trifluorobenzyl)pentan-2-ol], the IC50 is no more than 100 nM.

In the case of `CC(C)(CC(O)(Cc1cc(C(F)(F)F)cc(Cl)c1F)C(F)(F)F)c1ccc(F)cc1` (stereo not shown) [2-(3-Chloro-2-fluoro-5-trifluoromethylbenzyl)-1,1,1-trifluoro-4-(4-fluorophenyl)-4-methylpentan-2-ol], the half-maximal inhibitory concentration (IC50) is no more than 100 nM.

`COc1ccc(F)cc1C(C)(C)CC(O)(Cc1ccc(F)c(Cl)c1)C(F)(F)F` (stereo not shown) [2-(3-Chloro-4-fluorobenzyl)-1,1,1-trifluoro-4-(5-fluoro-2-methoxyphenyl)-4-methylpentan-2-ol] had an IC50 of no more than 100 nM.

In turn, `CC(C)(CC(O)(Cc1ccc(Cl)c(Cl)c1)C(F)(F)F)c1ccccc1` (stereo not shown) [2-(3,4-Dichlorobenzyl)-1,1,1-trifluoro-4-methyl-4-phenylpentan-2-ol] came in with a half-inhibitory concentration (IC50) of no more than 100 nM.

Turning to `CC(C)(CC(O)(Cc1cc(C(F)(F)F)cc(Cl)c1F)C(F)(F)F)c1cccc(Cl)c1` (stereo not shown) [2-(3-Chloro-2-fluoro-5-trifluoromethylbenzyl)-4-(3-chlorophenyl)-1,1,1-trifluoro-4-methylpentan-2-ol], the 50% inhibitory concentration (IC50) is no more than 100 nM.

Regarding `CC(C)(CC(O)(Cc1cc(C(F)(F)F)cc(C(F)(F)F)c1)C(F)(F)F)c1cc(F)ccc1O` (stereo not shown) [2-[3-(3,5-Bis-trifluoromethylbenzyl)-4,4,4-trifluoro-3-hydroxy-1,1-dimethylbutyl]-4-fluorophenol], the 50% inhibitory concentration (IC50) is no more than 100 nM.

`COc1ccc(F)cc1C(C)(C)CC(O)(Cc1ccc(C#N)cc1F)C(F)(F)F` (stereo not shown) [3-Fluoro-4-[4-(5-fluoro-2-methoxyphenyl)-2-hydroxy-4-methyl-2-trifluoromethylpentyl]benzonitrile] registered a half-inhibitory concentration (IC50) of no more than 100 nM.

Turning to `COc1ccc(F)cc1C(C)(C)CC(O)(Cc1ccccc1Br)C(F)(F)F` (stereo not shown) [2-(2-Bromobenzyl)-1,1,1-trifluoro-4-(5-fluoro-2-methoxyphenyl)-4-methylpentan-2-ol], the IC50 is no more than 100 nM.

What is called IC50 is the concentration at which inhibition is half-maximal. Low readings indicate higher potency, high ones lower potency.
